Data as given in US10442848B2, “Oxyntomodulin derivatives and pharmaceutical composition for treating obesity comprising the same” (HANMI SCIENCE CO., LTD, priority 2011, dated 2019).

Legend:
[1] = biological target: T1, human glucagon receptor (Homo sapiens, UniProt P47871); assay: cAMP response in CHO cell line expressing human glucagon receptor; assay type: cell-based; conditions: read-out: EC50 CHO/GCGR
T1 construct: expressed in transfected cells; host or cells: CHO DG44
Method: The PCR product was cloned into the known animal cell expression vector x0GC/dhfr to prepare a recombinant vector x0GC/GCGR.
CHO DG44 cell line cultured in DMEM/F12 (10% FBS) medium was transfected with the recombinant vector x0GC/GCGR using LIPOFECTAMINE®, and cultured in a selection medium containing 1 mg/mL G418 and 10 nM methotraxate.
The cultured cells were washed with KRB buffer and suspended in 40 ml of KRB buffer containing 1 mM IBMX, and left at room temperature for 5 minutes. […] Then, 20 mL of cell lysis buffer was added for cell lysis, and the cell lysates were applied to a cAMP assay kit (Molecular Device, USA) to measure cAMP concentrations. EC50 values were calculated therefrom, and compared to each other.

[2] = taken for 1 year; cited from earlier work

T1 sequence (P47871 26-477): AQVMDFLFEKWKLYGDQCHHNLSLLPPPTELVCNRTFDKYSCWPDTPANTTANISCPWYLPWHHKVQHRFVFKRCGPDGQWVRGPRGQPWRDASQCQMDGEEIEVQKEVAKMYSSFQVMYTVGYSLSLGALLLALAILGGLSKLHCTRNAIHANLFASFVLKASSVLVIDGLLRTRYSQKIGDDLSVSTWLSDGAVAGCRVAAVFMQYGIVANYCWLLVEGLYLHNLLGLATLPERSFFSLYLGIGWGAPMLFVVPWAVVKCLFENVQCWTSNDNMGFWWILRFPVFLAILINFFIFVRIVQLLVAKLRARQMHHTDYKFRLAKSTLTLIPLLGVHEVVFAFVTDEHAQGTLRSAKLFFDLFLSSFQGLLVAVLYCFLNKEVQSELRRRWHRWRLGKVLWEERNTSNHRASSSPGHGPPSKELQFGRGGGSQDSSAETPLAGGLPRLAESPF

| SMILES | EC50 [1] [nM] | weight loss [2] [kg] |
| --- | --- | --- |
| CSCC[C@H](NC(=O)[C@H](CC(C)C)NC(=O)[C@H](Cc1c[nH]c2ccccc12)NC(=O)[C@H](CCC(N)=O)NC(=O)[C@@H](NC(=O)[C@H](Cc1ccccc1)NC(=O)[C@H](CCC(=O)O)NC(=O)[C@H](CCCCN)NC(=O)[C@H](C)NC(=O)[C@H](CCCNC(=N)N)NC(=O)[C@H](CCCCN)NC(=O)[C@H](CCC(=O)O)NC(=O)[C@H](CC(=O)O)NC(=O)[C@H](CC(C)C)NC(=O)[C@H](Cc1ccc(O)cc1)NC(=O)[C@H](CCCCN)NC(=O)[C@H](CO)NC(=O)[C@H](Cc1ccc(O)cc1)NC(=O)[C@H](CC(=O)O)NC(=O)[C@H](CO)NC(=O)[C@@H](NC(=O)[C@H](Cc1ccccc1)NC(=O)[C@@H](NC(=O)CNC(=O)[C@H](CCC(N)=O)NC(=O)C(C)(C)NC(=O)[C@@H](N)Cc1c[nH]cn1)[C@@H](C)O)[C@@H](C)O)C(C)C)C(=O)N[C@@H](CC(N)=O)C(=O)N[C@H](C(=O)N[C@@H](CS)C(=O)O)[C@@H](C)O [SEQ ID NO. 24] | 6.95 |  |
| CSCC[C@H](NC(=O)[C@H](CC(C)C)NC(=O)[C@H](Cc1c[nH]c2ccccc12)NC(=O)[C@H](CCC(N)=O)NC(=O)[C@@H](NC(=O)[C@H](Cc1ccccc1)NC(=O)[C@H](CCC(=O)O)NC(=O)[C@@H]1CCCCNC(=O)CC[C@H](NC(=O)[C@H](CC(=O)O)NC(=O)[C@H](CC(C)C)NC(=O)[C@H](Cc2ccc(O)cc2)NC(=O)[C@H](CCCCN)NC(=O)[C@H](CO)NC(=O)[C@H](Cc2ccc(O)cc2)NC(=O)[C@H](CC(=O)O)NC(=O)[C@H](CO)NC(=O)[C@@H](NC(=O)[C@H](Cc2ccccc2)NC(=O)[C@@H](NC(=O)CNC(=O)[C@H](CCC(N)=O)NC(=O)C(C)(C)NC(=O)[C@@H](N)Cc2c[nH]cn2)[C@@H](C)O)[C@@H](C)O)C(=O)N[C@@H](CCCCN)C(=O)N[C@@H](CCCNC(=N)N)C(=O)N[C@@H](C)C(=O)N1)C(C)C)C(=O)N[C@@H](CC(N)=O)C(=O)N[C@H](C(=O)N[C@@H](CS)C(=O)O)[C@@H](C)O [SEQ ID NO. 25] | 1.3 |  |
| CCCCCCCCCCC[C@@H](C[C@@H]1OC(=O)[C@H]1CCCCCC)OC(=O)[C@H](CC(C)C)NC=O [orlistat] |  | 4 |
